Data: article PMC5096949 (Toxicology letters, 2016)
Entries after “also recorded” stand apart in the source; their conditions may differ.

Legend:
[1] = target: T1, Human Recombinant FAAH (fatty acid amide hydrolase) (Homo sapiens, UniProt O00519); assay: FAAH inhibition, fluorimetric assay with OMP substrate, recombinant enzyme; format: biochemical; settings: for activity / potency towards FAAH (in words): recombinant FAAH; for time-dependence of FAAH inhibition: pre-incubation of enzyme with inhibitor up to 1 h
T1 sequence (O00519 1-579): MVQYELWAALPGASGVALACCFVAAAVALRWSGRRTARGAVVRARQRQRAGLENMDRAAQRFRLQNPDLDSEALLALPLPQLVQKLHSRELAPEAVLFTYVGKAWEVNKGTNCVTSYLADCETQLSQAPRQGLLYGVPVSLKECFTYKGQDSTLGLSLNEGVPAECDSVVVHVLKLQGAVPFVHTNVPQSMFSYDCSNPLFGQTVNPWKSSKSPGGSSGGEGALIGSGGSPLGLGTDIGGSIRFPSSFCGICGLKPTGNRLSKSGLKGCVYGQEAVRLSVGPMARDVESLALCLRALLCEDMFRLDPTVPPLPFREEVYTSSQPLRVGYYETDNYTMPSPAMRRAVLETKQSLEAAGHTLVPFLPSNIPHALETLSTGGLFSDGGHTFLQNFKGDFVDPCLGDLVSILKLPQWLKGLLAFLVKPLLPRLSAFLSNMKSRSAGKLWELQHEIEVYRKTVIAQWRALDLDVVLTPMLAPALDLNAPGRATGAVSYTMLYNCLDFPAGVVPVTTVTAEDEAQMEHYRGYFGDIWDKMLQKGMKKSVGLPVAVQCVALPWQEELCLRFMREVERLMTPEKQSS

[2] = test system: PPARγ, C/EBPα and FABP4 mRNA expression; assay: RT-PCR of adipocyte marker genes in 3T3-L1 cells; format: cell-based, Murine; settings: for effect on AEA-induced adipocyte marker expression: 3T3-L1, 10 μM compound, co-treatment with AEA 10 μM; for PPARγ, C/EBPα and FABP4 mRNA expression: 3T3-L1, 1, 10, 50 μM for 7 days, n = 3
[3] = target: T2, Human Recombinant hCE1 (carboxylesterase 1) (Homo sapiens, UniProt P23141); assay: Esterase inhibition, fluorimetric assay with CMNA substrate; format: biochemical
T2 sequence (P23141 18-567): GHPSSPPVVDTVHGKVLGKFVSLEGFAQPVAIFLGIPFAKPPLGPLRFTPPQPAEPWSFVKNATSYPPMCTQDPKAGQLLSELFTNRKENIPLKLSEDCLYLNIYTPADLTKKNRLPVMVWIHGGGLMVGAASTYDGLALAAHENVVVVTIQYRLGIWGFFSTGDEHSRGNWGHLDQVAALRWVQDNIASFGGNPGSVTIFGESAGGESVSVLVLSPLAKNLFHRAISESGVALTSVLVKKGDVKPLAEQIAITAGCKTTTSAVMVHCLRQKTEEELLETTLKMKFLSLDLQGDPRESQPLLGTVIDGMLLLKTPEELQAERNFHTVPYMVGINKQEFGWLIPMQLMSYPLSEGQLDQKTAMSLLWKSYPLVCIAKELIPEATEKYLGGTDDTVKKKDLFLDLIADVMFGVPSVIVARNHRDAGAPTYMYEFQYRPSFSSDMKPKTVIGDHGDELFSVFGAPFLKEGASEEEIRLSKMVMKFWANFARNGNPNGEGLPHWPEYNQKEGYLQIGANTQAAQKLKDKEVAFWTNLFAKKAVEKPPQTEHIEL

[4] = target: T3, Human Recombinant hCE2 (carboxylesterase 2) (Homo sapiens, UniProt O00748); assay: as above; format: biochemical
T3 sequence (O00748 27-559): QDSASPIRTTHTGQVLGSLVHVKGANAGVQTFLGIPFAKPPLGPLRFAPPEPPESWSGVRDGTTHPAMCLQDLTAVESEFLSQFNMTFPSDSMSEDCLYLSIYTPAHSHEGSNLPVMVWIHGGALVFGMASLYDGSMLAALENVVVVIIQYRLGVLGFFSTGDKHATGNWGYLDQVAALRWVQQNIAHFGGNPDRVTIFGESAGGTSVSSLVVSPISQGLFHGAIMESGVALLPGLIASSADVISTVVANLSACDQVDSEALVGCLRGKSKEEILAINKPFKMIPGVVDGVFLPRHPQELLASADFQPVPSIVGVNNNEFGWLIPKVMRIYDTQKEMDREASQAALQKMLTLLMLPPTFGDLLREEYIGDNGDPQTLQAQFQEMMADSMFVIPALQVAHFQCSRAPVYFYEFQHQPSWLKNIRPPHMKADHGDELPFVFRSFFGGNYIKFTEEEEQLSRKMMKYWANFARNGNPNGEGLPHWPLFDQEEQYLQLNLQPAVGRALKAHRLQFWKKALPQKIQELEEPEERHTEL

[5] = target: T4, Mouse Brain Microsomes (FAAH) (Mus musculus, UniProt O08914); assay: FAAH inhibition in brain microsomes, OMP hydrolysis
T4 sequence (O08914 1-579): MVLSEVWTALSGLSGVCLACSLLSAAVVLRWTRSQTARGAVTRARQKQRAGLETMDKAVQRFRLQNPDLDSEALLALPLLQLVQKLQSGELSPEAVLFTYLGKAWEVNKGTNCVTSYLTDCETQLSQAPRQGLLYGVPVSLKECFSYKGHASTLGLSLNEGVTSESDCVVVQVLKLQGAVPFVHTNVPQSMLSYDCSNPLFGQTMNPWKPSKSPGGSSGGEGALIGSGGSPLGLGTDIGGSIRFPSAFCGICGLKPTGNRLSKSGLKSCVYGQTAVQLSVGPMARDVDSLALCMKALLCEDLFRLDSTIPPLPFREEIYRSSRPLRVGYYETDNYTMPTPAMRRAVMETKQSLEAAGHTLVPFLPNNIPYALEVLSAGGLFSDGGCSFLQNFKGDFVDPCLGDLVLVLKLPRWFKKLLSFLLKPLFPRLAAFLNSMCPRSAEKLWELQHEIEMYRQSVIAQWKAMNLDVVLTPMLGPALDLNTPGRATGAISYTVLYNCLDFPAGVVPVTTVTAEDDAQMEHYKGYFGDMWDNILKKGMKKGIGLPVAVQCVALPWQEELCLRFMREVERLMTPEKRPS

[6] = target: T5, Rat Brain Microsomes (FAAH) (Rattus norvegicus, UniProt P97612); assay: as above
T5 sequence (P97612 1-579): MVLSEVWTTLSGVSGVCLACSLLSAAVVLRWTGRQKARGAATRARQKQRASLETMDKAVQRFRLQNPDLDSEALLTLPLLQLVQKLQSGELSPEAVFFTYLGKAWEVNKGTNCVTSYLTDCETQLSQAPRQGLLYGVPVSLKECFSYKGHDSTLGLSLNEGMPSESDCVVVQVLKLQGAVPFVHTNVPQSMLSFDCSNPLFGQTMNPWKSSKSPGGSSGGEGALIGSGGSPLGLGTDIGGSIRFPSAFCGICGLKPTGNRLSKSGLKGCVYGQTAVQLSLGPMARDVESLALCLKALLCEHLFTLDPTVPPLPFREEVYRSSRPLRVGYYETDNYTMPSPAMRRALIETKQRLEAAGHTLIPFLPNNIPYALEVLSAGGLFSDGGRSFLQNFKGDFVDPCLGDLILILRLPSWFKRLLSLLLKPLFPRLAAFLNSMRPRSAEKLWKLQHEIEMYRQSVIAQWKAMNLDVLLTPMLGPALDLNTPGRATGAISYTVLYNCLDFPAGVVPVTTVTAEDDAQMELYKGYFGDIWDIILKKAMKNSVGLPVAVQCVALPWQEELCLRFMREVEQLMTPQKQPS

[7] = test system: 3T3-L1 cells; assay: 3T3-L1 adipocyte differentiation, Oil Red O staining of lipid accumulation; format: cell-based, Murine; settings: for effect on AEA-mediated adipocyte differentiation (Oil Red O): 10 μM compound, co-treatment with AEA 10 μM, 7 days; for adipocyte differentiation / lipid accumulation (Oil Red O staining): 1, 10, 50 μM for 7 days
[8] = target: T6, Human Recombinant AADAC (arylacetamide deacetylase) (Homo sapiens, UniProt P22760); assay: Esterase inhibition, fluorimetric assay with CMNA substrate; format: biochemical
T6 sequence (P22760 1-399): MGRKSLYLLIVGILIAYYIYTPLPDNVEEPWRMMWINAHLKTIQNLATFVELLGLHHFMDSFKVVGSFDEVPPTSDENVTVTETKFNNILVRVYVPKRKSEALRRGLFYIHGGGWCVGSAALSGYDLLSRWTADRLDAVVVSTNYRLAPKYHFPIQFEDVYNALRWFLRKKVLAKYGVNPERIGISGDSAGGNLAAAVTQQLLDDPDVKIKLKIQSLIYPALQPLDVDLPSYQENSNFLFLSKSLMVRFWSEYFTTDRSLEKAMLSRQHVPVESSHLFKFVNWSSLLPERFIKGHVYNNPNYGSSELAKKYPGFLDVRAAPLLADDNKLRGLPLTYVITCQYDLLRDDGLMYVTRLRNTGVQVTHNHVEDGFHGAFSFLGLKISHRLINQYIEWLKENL

[9] = human exposure; ref Calafat et al., 2010; Tefre de Renzy-Martin et al., 2014; cited from earlier work
[10] = as inhibitor concentration increases

O=C(O)c1ccc(O)cc1 [4-HO-benzoate, 4-hydroxybenzoic acid]
activity / potency towards FAAH (in words) [1]: completely inactive

CCCCC/C=C\C/C=C\C/C=C\C/C=C\CCCC(=O)NCCO [AEA, arachidonoyl ethanolamide, reference compound]
expression of markers of differentiation ([2]; 3T3-L1, AEA 10 μM, 7 days): increased expression of several markers of differentiation (PPARγ and C/EBPα)

O=C(OCc1ccccc1)c1ccc(O)cc1 [Benzylparaben, benzylparaben]
effect on AEA-induced adipocyte marker expression ([2]; 7 days): not significantly changed
PPARγ, C/EBPα and FABP4 mRNA expression [2]: enhanced PPARγ, C/EBPα and FABP4 mRNA expression
IC50 [3]: > 10 µM
IC50 [4]: > 10 µM
IC50 [5]: 0.21 µM
mechanism of FAAH inhibition [1]: mixed type mechanism
Ki ([1]; Ki, linear mixed-type model of inhibition): 0.052 ± 0.014 µM
potency relative to URB597 (less potent) ([1]; after a 5 min incubation): 3 fold
change in KM app [1, 10]: 18 to 98 µM
change in Vmax app [1, 10]: 5.5 RFU/s to 2.0 RFU/s
α value ([1]; linear mixed-type model of inhibition): 9.7 ± 6.6
time-dependence of FAAH inhibition [1]: independent on incubation time
Ki ([1]; upper limit of relative Ki, at saturating substrate, mixed-type interaction): ≤ 1 µM
IC50 [6]: 0.23 µM
effect on AEA-mediated adipocyte differentiation (Oil Red O) [7]: do not synergize to increase adipocyte differentiation
adipocyte differentiation / lipid accumulation (Oil Red O staining) [7]: dose-dependently enhanced 3T3-L1 adipocyte differentiation
IC50 [8]: > 10 µM

CCCCOC(=O)c1ccc(O)cc1 [Butylparaben, butylparaben]
effect on AEA-induced adipocyte marker expression ([2]; 7 days): not significantly changed
PPARγ, C/EBPα and FABP4 mRNA expression [2]: enhanced PPARγ, C/EBPα and FABP4 mRNA expression
IC50 [3]: > 10 µM
IC50 [4]: > 10 µM
urinary concentrations [9]: 0.1 to 0.5 µM
IC50 [5]: 1.6 µM
time-dependence of FAAH inhibition [1]: independent on incubation time
IC50 [6]: 1.1 µM
effect on AEA-mediated adipocyte differentiation (Oil Red O) [7]: do not synergize to increase adipocyte differentiation
adipocyte differentiation / lipid accumulation (Oil Red O staining) [7]: dose-dependently enhanced 3T3-L1 adipocyte differentiation
IC50 [8]: > 10 µM

COc1ccc(C(=O)OCc2ccccc2)cc1 [Compound 2]
activity / potency towards FAAH (in words) [1]: completely removed potency

O=C(OCc1ccccc1)c1ccccc1 [Compound 3]
activity / potency towards FAAH (in words) [1]: completely removed potency

O=C(OCc1ccccc1)c1ccc([N+](=O)[O-])cc1 [Compound 4]
activity / potency towards FAAH (in words) [1]: completely removed potency

O=C(OCC1CCCCC1)c1ccc(O)cc1 [Compound 5]
decrease in potency relative to benzylparaben ([1]; FAAH IC50, 5 min pre-incubation): 2 fold

CCCCCCCOC(=O)c1ccc(O)cc1 [Compound 6, heptylparaben]
activity / potency towards FAAH (in words) [1]: no change in potency

COC(=O)c1ccc(O)cc1 [Methylparaben, methylparaben]
activity / potency towards FAAH (in words) [1]: completely inactive

O=C(Nc1ccccc1)N1CCN(Cc2ccc3ccccc3n2)CC1 [PF622, N-phenyl-4-(quinolin-2-ylmethyl)piperazine-1-carboxamide]
effect on AEA-mediated adipocyte differentiation (Oil Red O) [7]: do not synergize to increase adipocyte differentiation
adipocyte differentiation / lipid accumulation (Oil Red O staining) [7]: had no effects at any of the doses tested

NC(=O)c1cccc(-c2cccc(OC(=O)NC3CCCCC3)c2)c1 [URB597, 3′-carbamoyl-[1,1′-biphenyl]-3-yl cyclohexylcarbamate, reference compound]
effect on AEA-induced adipocyte marker expression ([2]; 7 days): not significantly changed
PPARγ, C/EBPα and FABP4 mRNA expression [2]: increased PPARγ, C/EBPα and FABP4 mRNA expression
IC50 [3]: 2.2 µM
IC50 [4]: 0.73 µM
OMP hydrolysis remaining ([5]; 50 nM, mouse brain microsomes): less than 20%
inhibition at 0.05 µM ([5]; read-out: inhibition of activity (OMP hydrolysis)): > 80%
effect on AEA-mediated adipocyte differentiation (Oil Red O) [7]: do not synergize to increase adipocyte differentiation
adipocyte differentiation / lipid accumulation (Oil Red O staining) [7]: only exposure to 10 μM of URB597 resulted in increased lipid accumulation; also recorded: increased differentiation and only at a concentration of 10 μM, not at 50 μM
IC50 [8]: > 10 µM
